Experimental data taken from ChEMBL document CHEMBL1201862, “PubChem BioAssay data set” (2004).
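Exposure lasted 48 hours, with cells grown in 96-well plates and compounds tested at five concentrations. GI50: concentration for 50% inhibition of growth.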 Active and inactive are the calls of the source. Cut-off read from the data, not from the text of the source: active = GI50 up to about 1.1 µM and inactive = higher.

Assays:
Experiment in all cases: growth of human tumour cells (NCI), 48 h
786-0 = system: 786-0
MOLT-4 = system: MOLT-4
LOX IMVI = system: LOX IMVI
CAKI-1 = system: CAKI-1
U-251 = system: U-251
UACC-257 = system: UACC-257
SF-295 = system: SF-295
SK-MEL-28 = system: SK-MEL-28
OVCAR-4 = system: OVCAR-4
SW-620 = system: SW-620
A498 = system: A498
SK-MEL-5 = system: SK-MEL-5
RXF 393 = system: RXF 393
RXF 631 = system: RXF 631
HOP-92 = system: HOP-92
SN12C = system: SN12C
SF-539 = system: SF-539
UO-31 = system: UO-31
DMS-273 = system: DMS-273
UACC-62 = system: UACC-62
NCI-H23 = system: NCI-H23
OVCAR-8 = system: OVCAR-8
DLD-1 = system: DLD-1
SR = system: SR
TK-10 = system: TK-10
A549 = system: A549
OVCAR-3 = system: OVCAR-3
EKVX = system: EKVX
COLO 205 = system: COLO 205
NCI-H522 = system: NCI-H522
HCT-116 = system: HCT-116
HL-60 = system: HL-60
NCI-H460 = system: NCI-H460
RPMI-8226 = system: RPMI-8226
KM-20L2 = system: KM-20L2
SK-OV-3 = system: SK-OV-3
M14 = system: M14
HOP-62 = system: HOP-62
SNB-19 = system: SNB-19
ACHN = system: ACHN
CCRF-CEM = system: CCRF-CEM
M19-MEL = system: M19-MEL
SNB-78 = system: SNB-78
SF-268 = system: SF-268
KM12 = system: KM12
K562 = system: K562
SNB-75 = system: SNB-75
DMS-114 = system: DMS-114

Measured: GI50

CCCC(Sc1ccccc1)P(=O)(c1ccccc1)c1ccccc1 (stereo not drawn)
inactive: 786-0 37.7 µM | MOLT-4 20.6 µM | LOX IMVI 35.6 µM | CAKI-1 42.3 µM | U-251 23.5 µM | UACC-257 35.1 µM | SF-295 27.8 µM | SK-MEL-28 42.1 µM | OVCAR-4 37.8 µM | SW-620 41.9 µM | A498 28.3 µM | SK-MEL-5 25.4 µM | RXF 393 41.8 µM | RXF 631 30.1 µM | HOP-92 21.8 µM | SN12C 43.5 µM | SF-539 35.1 µM | UO-31 > 100 µM | DMS-273 36.6 µM | UACC-62 15.1 µM | NCI-H23 35.6 µM | OVCAR-8 36.2 µM | DLD-1 19.6 µM | SR 20.6 µM | TK-10 40 µM | A549 28.8 µM | OVCAR-3 41.1 µM | EKVX 24 µM | COLO 205 31.4 µM | NCI-H522 31.5 µM | HCT-116 31.3 µM | HL-60 22.3 µM | NCI-H460 29.8 µM | RPMI-8226 19 µM | KM-20L2 > 100 µM | SK-OV-3 22.7 µM | M14 35.2 µM | HOP-62 46.6 µM | SNB-19 > 100 µM | ACHN 19.8 µM | CCRF-CEM 29.9 µM | M19-MEL 34.6 µM | SNB-78 37.6 µM | SF-268 32.5 µM | KM12 38.7 µM | K562 29.9 µM | SNB-75 28.6 µM | DMS-114 34.8 µM
